Source: US4748161A, “Triterpenyl esters of organic acids and hypolipidemic agents composed of them” (Amano Pharmaceutical Co., Ltd., priority 1984, dated 1988)
Values joined by “and” are separate entries in the source; they are usually repeats but may differ in a detail not shown here. Equal entries are not always repeated.

System: serum lipids and serum lipid hydroperoxide
Assay: Pharmacological test method A for anti-hyperlipidemic activity (serum lipids, 2 weeks feeding)
Type: in vivo, male Wistar strain rats
Details: for AI [(TC - HDL-C)/(HDL-C)] / HDL-C in serum / LPO in serum / PL in serum / TC in serum / TG in serum: 1% in hyperlipidemic diet, 2 weeks
Method: Male Wistar strain rats (100±lg, each 10 rats were formed into a group) were used as test animals. Diet for the control group was prepared by thorough mixing of 20% casein, 62.5% glucose, 10% hydrogenated coconut oil, 2% agar powder, 4% vitamin-containing salt mixture, 1% cholesterol, and 0.5% cholic acid (this composition is described by Fukushima et al, in "Yakugaku Zassi", 89, No. 6, pp. 857-862 (1962)). Diet for the test groups was prepared by good mixing of 1% each of cycloartenol, 24-methylenecycloartanol, and cyclobranol with the control group's diet. Each rat was kept in a cage at a constant temperature of 23±1° C. and a constant R.H. of 55±5% for 2 weeks, during which 10 g/day of the prescribed was given. Finally the rats were fasted from food except water for 16 hours (from 4 p.m. of the 14th test day to 8 a.m. of the 15th test day), and under anesthesia with pentbarbital sodium (tradename: Nembutal), blood was taken from each rat through the descending abdominal arota. Then, TC, HDL-C, TG, PL, and LPO in the serum were measured in the manner that will be described below.
A TC kit-K (supplied by Nippon Shoji Kaisha, Ltd.) was used. The principle of this determination is as follows: The ester of cholesterol in the serum is hydrolyzed with cholesterol-ester hydrolase into free cholesterol and fatty acids. All the free cholesterol is oxidized with cholesterol oxydase to form Δ^4 -cholestenone and hydrogen peroxide. Phenol and 4-aminoantipyrin are oxidatively condensed together by the formed hydrogen peroxide and peroxydase. The produced red quinone coloring matter is measured by colorimetry for absorbance at 500 nm using a spectrophotometer, thereby determining the TC:
The color-developing liquid (3.0 ml) is well mixed with the sample serum (0.02 ml). The mixture once heated at 37° C. for 15 minutes, is measured for absorbance at 500 nm with a spectrophotometer. The found absorbance is denoted by EA. On the other hand, the color-developing liquid (3.0 ml) is well mixed with the standard solution. The mixture is treated and measured for absorbance at 500 nm in the same manner as the above. This found absorbance is denoted by ES. Both EA and ES are determined with reference to the value of the blank test conducted using the color-developing liquid (3.0 ml) alone. [formula]
An HDL-C kit-N (supplied by Nippon Shoji Kaisha, Ltd.) was used. […] (VLDL) and lo density lipoprotein (LDL) in the serum is precipitated by the action of heparin. The precipitate is separated by centrifugation. High density lipoprotein (HDL) is dissolved in the separated supernatant. Esters of cholesterol in this fraction is hydrolyzed with cholesterol-ester hydrolase into free cholesterol and fatty acids. All the free cholesterol is oxidized with cholesterol oxydase to form Δ^4 -cholestenone and hydrogen peroxide. Phenol and 4-aminoantipyrine are oxidatively condensed together by the formed hydrogen peroxide and peroxydase. The produced red quinone coloring matter is measured by colorimetry for absorbance at 500 nm using a spectrophotometer, thereby determining the HDL-C.
A PL kit-K (supplied by Nippon Shoji Kaisha, Ltd.) was used for the determination. Lecithin, sphingomyelin, and lysolecithin are decomposed by phospholipase D into choline and phosphatidic acid, N-acylsphingosyl phosphate, or lysophosphatidic acid, respectively. The resulting choline is quantitatively decomposed by choline oxydase into hydrogen peroxide and betaine. With this hydrogen peroxide, and aid of peroxydase, phenol and 4-aminoantipyrin are condensed into red quinone pigment, then the absorbance at 500 nm of which is measured with a spectrophotometer, thereby determining the PL.
Serum TG level was determined by means of a triglyceride test kit (supplied by Wako Pure Chemical Industries, Ltd.) in which acetylacetone is used for a reagent, in the following manner: Serum proteins are precipitated, when isopropyl alcohol and the sample serum are mixed. […]

Molecule: C=C(CCC(C)C1CCC2(C)C3CCC4C(C)(C)C(OC(=O)C=Cc5ccc(O)c(O)c5)CCC45CC35CCC12C)C(C)C (stereo not drawn) [Example 82, 24-Methylenecycloartanyl ester of 3,4-dihydroxycinnamic acid]
- AI [(TC - HDL-C)/(HDL-C)]: 1.228
- HDL-C in serum: 87.9 mg/dL
- LPO in serum: 2.08 nmol/mL
- PL in serum: 173.9 mg/dL
- TC in serum: 195.8 mg/dL
- TG in serum: 42.3 mg/dL
- AI % of diff. (versus control group): -27.1%
- AI Diff. (versus control group): -0.456
- HDL-C % of diff. (versus control group): +8.7%
- HDL-C Diff. (versus control group): +7.0 mg/dl
- LPO % of diff. (versus control group): -9.8%
- LPO Diff. (versus control group): -0.23 nmol/mL
- PL % of diff. (versus control group): -3.2%
- PL Diff. (versus control group): -5.8 mg/dL
- TC % of diff. (versus control group): -9.8%
- TC Diff. (versus control group): -21.3 mg/dL
- TG % of diff. (versus control group): -1.2%
- TG Diff. (versus control group): -0.5 mg/dL

Molecule: cycloartenyl-3,4-dihydroxycinnamate [Example 2]
- AI [(TC - HDL-C)/(HDL-C)]: 0.860 and 1.180
- HDL-C in serum: 90.3 mg/dL and 89.2 mg/dL
- LPO in serum: 1.98 nmol/mL and 2.05 nmol/mL
- PL in serum: 168.2 mg/dL and 170.2 mg/dL
- TC in serum: 168.0 mg/dL and 194.5 mg/dL
- TG in serum: 30.6 mg/dL and 41.3 mg/dL
- AI Diff. (Table 2, versus control group): -0.657 mg/dL
- AI Diff. (versus control group): -0.504
- LPO % of diff. (versus control group): -12.8% and -11.2%
- PL % of diff. (versus control group): -3.1% and -5.0%
- TC % of diff. (versus control group): -18.1% and -10.4%
- TG % of diff. (versus control group): -10.9% and -3.5%

Molecule: CCOc1cc(C(=O)OC2CCC34CC35CCC3(C)C(C(C)CCC=C(C)C)CCC3(C)C5CCC4C2(C)C)ccc1O (stereo not drawn) [Example 60, cycloartenyl-3-ethoxy-4-hydroxybenzoate]
- AI [(TC - HDL-C)/(HDL-C)]: 0.609
- HDL-C in serum: 102.5 mg/dL
- LPO in serum: 1.98 nmol/mL
- PL in serum: 161.4 mg/dL
- TC in serum: 164.9 mg/dL
- TG in serum: 32.8 mg/dL
- AI % of diff. (versus control group): -39.2%
- AI Diff. (versus control group): -0.393
- HDL-C % of diff. (versus control group): +6.5%
- HDL-C Diff. (versus control group): +6.3 mg/dl
- LPO % of diff. (versus control group): -15.0%
- LPO Diff. (versus control group): -0.35 nmol/mL
- PL % of diff. (versus control group): -10.8%
- PL Diff. (versus control group): -19.5 mg/dL
- TC % of diff. (versus control group): 14.4%
- TC Diff. (versus control group): -27.7 mg/dL
- TG % of diff. (versus control group): -1.2%
- TG Diff. (versus control group): -0.4 mg/dL

Molecule: C=C(CCC(C)C1CCC2(C)C3CCC4C(C)(C)C(OC(=O)C=Cc5ccc(OC(C)=O)cc5)CCC45CC35CCC12C)C(C)C (stereo not drawn) [Example 83, 24-Methylenecycloartanyl ester of p-acetoxycinnamic acid]
- AI [(TC - HDL-C)/(HDL-C)]: 1.059
- HDL-C in serum: 93.3 mg/dL
- LPO in serum: 2.02 nmol/mL
- PL in serum: 162.1 mg/dL
- TC in serum: 192.1 mg/dL
- TG in serum: 41.1 mg/dL
- AI % of diff. (versus control group): -37.1%
- AI Diff. (versus control group): -0.625
- HDL-C % of diff. (versus control group): +15.3%
- HDL-C Diff. (versus control group): +12.4 mg/dl
- LPO % of diff. (versus control group): -12.7%
- LPO Diff. (versus control group): -0.29 nmol/mL
- PL % of diff. (versus control group): -9.8%
- PL Diff. (versus control group): -17.6 mg/dL
- TC % of diff. (versus control group): -11.5%
- TC Diff. (versus control group): -25.0 mg/dL
- TG % of diff. (versus control group): -4.0%
- TG Diff. (versus control group): -1.7 mg/dL

Molecule: CC(C)=CCCC(C)C1CCC2(C)C3CCC4C(C)(C)C(OC(=O)c5ccccc5[N+](=O)[O-])CCC45CC35CCC12C (stereo not drawn) [Example 16, cycloartenyl-o-nitrobenzoate]
- AI [(TC - HDL-C)/(HDL-C)]: 1.529
- HDL-C in serum: 59.4 mg/dL
- LPO in serum: 2.04 nmol/mL
- PL in serum: 140.1 mg/dL
- TC in serum: 150.2 mg/dL
- TG in serum: 22.0 mg/dL
- AI % of diff. (versus control group): -17.2%
- AI Diff. (versus control group): -0.318
- HDL-C % of diff. (versus control group): +1.2%
- HDL-C Diff. (versus control group): +0.7 mg/dl
- LPO % of diff. (versus control group): -12.8%
- LPO Diff. (versus control group): -0.30 nmol/mL
- PL % of diff. (versus control group): -5.6%
- PL Diff. (versus control group): -8.3 mg/dL
- TC % of diff. (versus control group): -10.1%
- TC Diff. (versus control group): -16.9 mg/dL
- TG % of diff. (versus control group): -11.3%
- TG Diff. (versus control group): -2.8 mg/dL

Molecule: CCCCC/C=C\C/C=C\CCCCCCCC(=O)OC1CCC23CC24CCC2(C)C(C(C)CCC=C(C)C)CCC2(C)C4CCC3C1(C)C (stereo not drawn) [Example 25, cycloartenyl linolate]
- AI [(TC - HDL-C)/(HDL-C)]: 0.705
- HDL-C in serum: 92.3 mg/dL
- LPO in serum: 1.67 nmol/mL
- PL in serum: 144.6 mg/dL
- TC in serum: 157.4 mg/dL
- TG in serum: 34.0 mg/dL
- AI % of diff. (versus control group): -42.3%
- AI Diff. (versus control group): -0.517
- HDL-C % of diff. (versus control group): +6.7%
- HDL-C Diff. (versus control group): +5.8 mg/dl
- LPO % of diff. (versus control group): -25.6%
- LPO Diff. (versus control group): -0.57 nmol/mL
- PL % of diff. (versus control group): -16.2%
- PL Diff. (versus control group): -28.0 mg/dL
- TC % of diff. (versus control group): -18.1%
- TC Diff. (versus control group): -34.8 mg/dL
- TG % of diff. (versus control group): -6.2%
- TG Diff. (versus control group): -2.3 mg/dL

Molecule: CC(C)=CCCC(C)C1CCC2(C)C3CCC4C(C)(C)C(OC(=O)c5ccccc5O)CCC45CC35CCC12C (stereo not drawn) [Example 8, cycloartenyl-o-hydroxybenzoate]
- AI [(TC - HDL-C)/(HDL-C)]: 0.759
- HDL-C in serum: 101.1 mg/dL
- LPO in serum: 2.01 nmol/mL
- PL in serum: 148.8 mg/dL
- TC in serum: 177.8 mg/dL
- TG in serum: 41.3 mg/dL
- AI % of diff. (versus control group): -54.9%
- AI Diff. (versus control group): -0.925
- HDL-C % of diff. (versus control group): +25.0%
- HDL-C Diff. (versus control group): +20.2 mg/dl
- LPO % of diff. (versus control group): -13.0%
- LPO Diff. (versus control group): -0.30 nmol/mL
- PL % of diff. (versus control group): -17.2%
- PL Diff. (versus control group): -30.9 mg/dL
- TC % of diff. (versus control group): -18.1%
- TC Diff. (versus control group): -39.3 mg/dL
- TG % of diff. (versus control group): -3.5%
- TG Diff. (versus control group): -1.5 mg/dL

Molecule: Cycloartenyl-3,4-dipropionyloxycinnamate [Example 3]
- AI [(TC - HDL-C)/(HDL-C)]: 1.605
- HDL-C in serum: 76.8 mg/dL
- LPO in serum: 2.40 nmol/mL
- PL in serum: 167.0 mg/dL
- TC in serum: 200.1 mg/dL
- TG in serum: 33.3 mg/dL
- AI Diff. (Table 2, versus control group): +0.088 mg/dl
- AI % of diff. (versus control group): +5.8%
- HDL-C % of diff. (versus control group): -5.8%
- HDL-C Diff. (versus control group): -4.7 mg/dL
- LPO % of diff. (versus control group): +5.8%
- LPO Diff. (versus control group): +0.13 nmol/ml
- PL % of diff. (versus control group): -3.8%
- PL Diff. (versus control group): -6.6 mg/dL
- TC % of diff. (versus control group): -2.4%
- TC Diff. (versus control group): -5.0 mg/dL
- TG % of diff. (versus control group): -2.9%
- TG Diff. (versus control group): -1.0 mg/dL

Molecule: COc1cc(C=CC(=O)OC2CCC34CC35CCC3(C)C(C(C)CCC=C(C)C)CCC3(C)C5CCC4C2(C)C)ccc1O (stereo not drawn) [Example 100-1, cycloartenyl-4-hydroxy-3-methoxycinnamate]
- AI [(TC - HDL-C)/(HDL-C)]: 1.204
- HDL-C in serum: 79.1 mg/dL
- LPO in serum: 1.51 nmol/mL
- PL in serum: 150.0 mg/dL
- TC in serum: 174.3 mg/dL
- TG in serum: 28.3 mg/dL
- AI % of diff. (versus control group): -20.6%
- AI Diff. (versus control group): -0.313
- HDL-C % of diff. (versus control group): -3.0%
- HDL-C Diff. (versus control group): -2.4 mg/dL
- LPO % of diff. (versus control group): -33.5%
- LPO Diff. (versus control group): -0.76 nmol/mL
- PL % of diff. (versus control group): -13.3%
- PL Diff. (versus control group): -23.1 mg/dL
- TC % of diff. (versus control group): -15.0%
- TC Diff. (versus control group): -30.8 mg/dL
- TG % of diff. (versus control group): -17.6%
- TG Diff. (versus control group): -6.0 mg/dL
